From patent US20150283270A1, “MODELING ANTI-LEUKEMIC THERAPY BY PATIENT DERIVED AML XENOGRAFTS WITH DISTINCT PHENOTYPES/GENOTYPES” (Crown Bioscience Inc., priority 2014, published 2015)
“Also recorded” adds a separate entry of the source.

Test system: AM7577 leukemic cells (hCD45+)
Assay: Evaluation of anti-leukemia activity of a therapeutic in AM7577-mice (AML patient derived xenograft)
Type: in vivo, NOD/SCID mice
Conditions: for Inhibition of leukemia in blood: FIG. 4 legend; for Leukemic load in peripheral blood (hCD45+): 5-day-on/2-day-off, starting 15 days post-engraftment
Description: Animal experiments were conducted at Crown Bioscience's laboratory, China. The transplantation recipient NOD/SCID mice were purchased from Beijing HFK Bioscience at between 3-4 weeks of age. The Institutional Animal Care and Use Committee (IACUC) of Crown Bioscience approved animal study protocols. All procedures were under sterile conditions at Crown Bioscience's SPF facility and conducted in strict accordance with the Guide for the Care and Use of Laboratory Animals of the National Institutes of Health. Ficoll® column isolated MNCs were injected into the tail-vein of 4-week old, sub lethally irradiated NOD/SCID mice ([…]), followed by weekly monitoring for peripheral appearance of leukemic cells (CD45^+) via retro-orbital bleeding and flow analysis. Briefly, ˜50 μL blood was collected into anticoagulative tubes (BD 365974, Becton Dickinson and Co., Franklin Lakes, N.J.). After lysis of red blood cells the cells were stained with 20 μL mouse anti-human CD45 antibody (Biolegend, CA) and incubated on ice for 30 minutes in the dark followed by washing with cold PBS. The cells were resuspended in150 μL PBS and subjected to FACS analysis.
Fifteen days post-engraftment, mice were administered different doses of cytarabine (AraC). Mouse blood was collected by retro-orbital bleed and human CD45^+ cells were quantified weekly by flow cytometry. Body weight and clinical signs were also monitored twice weekly. When mice became morbid due to full-blown leukemia, the animals were sacrificed, followed by gross and microscopic examinations. Major relevant organs (bone marrow, spleen, blood, liver, lymph nodes, etc.) were examined and harvested for further analysis, including IHC (method described previously, Yang, M. et al., Int J Cancer. 2012; Sep. 5. doi: 10.1002/ijc.27813) and immunological phenotyping of the leukemia cells by FACS.
Cytarabine (AraC) is the current standard chemotherapy agent for induction therapy of AML, including AML-M5. We tested AraC anti-leukemic activity against AM7577, by subjecting AM7577-mice to a 5-day-on/2-day-off Ara-C dosing regimen, starting 15 days post-engraftment.
We subsequently explored whether AraC treatment actually cured the disease by withdrawing treatment. The result was rapid relapse just a few days post-treatment withdrawal (FIG. 3A). This observation can potentially be interpreted as AraC has only affected leukemic blasts, but has no affect on LICs.

Structure (SMILES) | Inhibition of leukemia in blood | Leukemic load in peripheral blood (hCD45+) (3 mg/kg) | Leukemic load in peripheral blood (hCD45+) (10 mg/kg) | Relapse after drug withdrawal (AM7577-mice, after treatment withdrawal) | Treatment & response (AML mouse model AM7577) | Leukemic blasts in peripheral blood on resuming treatment after withdrawal (second dosing period after relapse) | Survival of AM7577-mice (under treatment vs vehicle group)
CC(C)(C)c1cc(NC(=O)Nc2ccc(-c3cn4c(n3)sc3cc(OCCN5CCOCC5)ccc34)cc2)no1 [AC220] | Inhibition | – | – | – | – | – | –
Nc1ccn([C@@H]2O[C@H](CO)[C@@H](O)[C@@H]2O)c(=O)n1 [AraC, Cytarabine] | – | no detectable leukemic load | no detectable leukemic load | rapidly relapsed; also recorded: rapid relapse | complete remission | effectively re-suppressed | extended life; also recorded: extended AM7577-mice survival times
CNC(=O)c1cc(Oc2ccc(NC(=O)Nc3ccc(Cl)c(C(F)(F)F)c3)cc2)ccn1 [sorafenib] | Inhibition | – | – | – | – | – | –
